# Assay results from patent US20260041811A1, “HYDROGEL FOR THE REDUCTION OF BIOFILMS” (PAUL HARTMANN AG, priority 2022, published 2026).
# Details: alkaline pH versus neutral and acidic pH
compound,measurement,value
O=C([O-])CN(CCN(CC(=O)[O-])CC(=O)[O-])CC(=O)[O-].[Ag+].[Ag+].[Zn+2] [Ag2Zn(EDTA)],stability of the active ingredient-containing solution (precipitation),can be stabilized by an alkaline pH
